# Tested on: 8XTBD luciferase reporter
# Experiment: YAP Reporter Assay
# Type: cell-based
# Conditions: Homo sapiens, HEK-293T; HEK293T cells stably transfected with 8XTBD luciferase reporter and pRLTK; 24-hr incubation; starting from 3 μM, 1:3 dilution, 10 points; read-out: Firefly Luciferase IC50
# Method: HEK293T cells stably transfected with 8XTBD luciferase reporter and pRLTK in 384-well plates were treated with the test compounds, starting from 3 μM (final concentration in assay plate), 1:3 dilution, and 10 points in quadruplicates. Post 24-hr incubation with compounds at 37° C. and 5% CO2, cells were lysed and 8XTBD-driven firefly luciferase and control TK-driven renilla luciferase activities were measured using Promega Dual-Luciferase Reporter Assay System.
# Reagents: The reagents used for this study are: DMEM: Invitrogen #11960077, Dual-Glo Luciferase Assay System: Promega-E2980, Puromycin Dihydrochloride: Invitrogen-A1113803, 384-well plate: PerkinElmer-6007480, L-GLUTAMINE: Invitrogen-25030164, Hygromycin B: Invitrogen-10687010, and Penicillin-Streptomycin: Merk-TMS-AB2-C
# Media: The media used for this assay were: Culture Medium: DMEM+1 ug/mL puromycin+200 ug/mL hygromycin (with 10% FBS+1 mM L-glutamine); and Assay Medium: DMEM (with 10% FBS+1 mM L-glutamine+1×P/S).
# Cell Plating: The appropriate media was warmed at 37° C. by water bath: Culture Medium, Assay Medium, 1* D-PBS, 0.05% trypsin-EDTA. The cells were trypsinized after removing all media, then washed with 1* sterile D-PBS and then with 2 ml 0.05% trypsin-EDTA. The cells were then incubated at RT for one minute. Then 10 ml/75 cm2 flask Assay Medium was added to each flask. Using a 10 ml pipette, the cells were then gently resuspended in the media, until the clumps completely disappeared. The cells were then transferred into 50 ml centrifuge tubes and were centrifuged at 800 rpm for 5 mins. The medium was removed and the cells were resuspended with Assay Medium. An aliquot of cells was used to count the cell density (cells/ml). The cell suspension was then diluted with Assay Medium to a concentration of 6×10^4 cells/ml. 50 ul cells suspension was then plated to 384-well plate (PerkinElmer-6007480), 3×10^3 cells/well and the cells were incubated in an incubator at 37° C., 5% CO2.
# Compound Treatment: In the afternoon (incubation of the plate with 3-4 hrs), the test compounds were added by Echo, starting from 3 uM (final concentration in the assay plate), 1:3 dilution, 10 points, quadruplicates. The plate was placed at 37° C., 5% CO2 incubator for 24 hrs.
# Detection: The Dual-Glo Luciferase Reagent was prepared by transferring the contents of one bottle of Dual-Glo Luciferase Buffer to one bottle of Dual-Glo Luciferase Substrate to create the Dual-Glo Luciferase Reagent. Mixing was performed by inversion until the substrate was thoroughly dissolved. After mixing, the reagent was aliquoted into 15 ml tubes. In the afternoon (24 hrs post compound treatment), the DMEM+ medium in the 384 well plates were aspirated by Microplate Washer.
# Measuring firefly luciferase activity: 20 ul Dual-Glo Luciferase Reagent was added to the 384-well plates. The plates were protected from light to prevent interference with the assay. The plates were shaken for 1 min followed centrifuging plates at 1000 rpm for 30 seconds. After waiting at least 10 minutes, the firefly luminescence was measured by Envision.
# Measuring renilla luciferase activity: 20 ul Stop-Glo Reagent was added to the 384-well plates. The plates were shaken for 1 min and then centrifuged at 1000 rpm for 30 seconds. After waiting at least 10 minutes, the renilla luminescence was measured by Envision.
# Compound IC50 and maximum inhibition on the firefly luciferase and renilla luciferase activities were reported separately.
row,IC50 [nM],SMILES
1,≤ 100,"CNS(=O)(=O)c1ccc(Nc2ccccc2)c(-c2nnn(C)n2)c1 [Compound 90, N-methyl-3-(2-methyl-2H-tetrazol-5-yl)-4-(phenylamino)benzenesulfonamide]"
2,100 to 1000,"CNS(=O)(=O)c1ccc(Nc2cc(C(F)(F)F)cc(C(F)(F)F)c2)c(-c2cn(C)cn2)c1 [Compound 146, 4-[3,5-Bis(trifluoromethyl)anilino]-N-methyl-3-(1-methylimidazol-4-yl)benzenesulfonamide]"
3,1000 to 3000,"CNS(=O)(=O)c1ccc(NC2CCCCC2)c(-c2nnnn2C2CCCNC2)c1 (stereo not drawn) [Compound 75, 4-(cyclohexylamino)-N-methyl-3-(1-(piperidin-3-yl)-1H-tetrazol-5-yl)benzenesulfonamide]"
4,≤ 100,"CNS(=O)(=O)c1ccc(Nc2cccc(OC(F)(F)F)c2)c(-c2nnn(C)n2)c1 [Compound 94, N-methyl-3-(2-methyl-2H-tetrazol-5-yl)-4-((3-(trifluoromethoxy)phenyl)amino)benzenesulfonamide]"
5,≤ 100,"CNS(=O)(=O)c1ccc(NC2CCCCC2)c(-c2ncccc2F)c1 [Compound 79, 4-(cyclohexylamino)-3-(3-fluoropyridin-2-yl)-N-methylbenzenesulfonamide]"
6,≤ 100,"CNS(=O)(=O)c1ccc(Nc2ccc(Cl)cc2)c(-c2cn(C)cn2)c1 [Compound 139, 4-(4-chloroanilino)-N-methyl-3-(1-methylimidazol-4-yl)benzenesulfonamide]"
7,≤ 100,"CNS(=O)(=O)c1ccc(Nc2ccc(OC(F)(F)F)cc2)c(-c2nnn(C)n2)c1 [Compound 103, N-methyl-3-(2-methyl-2H-tetrazol-5-yl)-4-((4-(trifluoromethoxy)phenyl)amino)benzenesulfonamide]"
8,> 3000,"CNS(=O)(=O)c1ccc(Nc2cccc(F)c2F)c(-c2nnnn2C)c1 [Compound 106, 4-((2,3-difluorophenyl)amino)-N-methyl-3-(1-methyl-1H-tetrazol-5-yl)benzenesulfonamide]"
9,100 to 1000,"CNS(=O)(=O)c1ccc(Nc2ccc(C(F)(F)F)cc2)c(-c2nnn(CCOCc3ccccc3)n2)c1 [Compound 115, 3-(2-(2-(benzyloxy)ethyl)-2H-tetrazol-5-yl)-N-methyl-4-((4-(trifluoromethyl)phenyl)amino)benzenesulfonamide]"
10,> 3000,"CNS(=O)(=O)c1ccc(Nc2ccc(OC(F)(F)F)cc2)c(-c2nnnn2C)c1 [Compound 99, N-methyl-3-(1-methyl-1H-tetrazol-5-yl)-4-((4-(trifluoromethoxy)phenyl)amino)benzenesulfonamide]"
11,≤ 100,"CNS(=O)(=O)c1ccc(N[C@H]2CC[C@@H](C(F)(F)F)CC2)c(-c2cn(C)cn2)c1 [Compound 150, N-methyl-3-(1-methyl-1H-imidazol-4-yl)-4-(((1s,4s)-4-(trifluoromethyl)cyclohexyl)amino) benzenesulfonamide]"
12,≤ 100,"CNS(=O)(=O)c1ccc(NC2CCCCC2)c(-n2nccn2)c1 [Compound 81, 4-(Cyclohexylamino)-N-methyl-3-(2H-1,2,3-triazol-2-yl)benzenesulfonamide]"
13,> 3000,"CNS(=O)(=O)c1ccc(Nc2cccc(C(F)(F)F)c2)c(-c2nnnn2C)c1 [Compound 97, N-methyl-3-(1-methyl-1H-tetrazol-5-yl)-4-((3-(trifluoromethyl)phenyl)amino)benzenesulfonamide]"
14,> 3000,"CNS(=O)(=O)c1ccc(Nc2cc(F)cc(F)c2)c(-c2nnnn2C)c1 [Compound 107, 4-((3,5-difluorophenyl)amino)-N-methyl-3-(1-methyl-1H-tetrazol-5-yl)benzenesulfonamide]"

# The next lines start with the compound.
row,SMILES,IC50 [nM]
1,"CC(C)(C)NS(=O)(=O)c1ccc(NC2CCCCC2)c(-c2nn[nH]n2)c1 [Compound 1, N-(tert-butyl)-4-(cyclohexylamino)-3-(2H-tetrazol-5-yl)benzenesulfonamide]",> 3000
2,"CNS(=O)(=O)c1ccc(NC2CCCCC2)c(-c2nnnn2C2CCCN(C(=O)OC(C)(C)C)C2)c1 (stereo not drawn) [Compound 60, tert-butyl 3-(5-(2-(cyclohexylamino)-5-(N-methylsulfamoyl)phenyl)-1H-tetrazol-1-yl)piperidine-1-carboxylate]",> 3000
3,"Cn1ccc(-c2cc(S(C)(=O)=O)ccc2NC2CCCCC2)n1 [Compound 8, N-cyclohexyl-2-(1-methyl-1H-pyrazol-3-yl)-4-(methylsulfonyl)aniline]",100 to 1000
4,"CS(=O)(=O)c1ccc(NC2CCCCC2)c(-n2nccn2)c1 [Compound 13, N-cyclohexyl-4-(methylsulfonyl)-2-(2H-1,2,3-triazol-2-yl)aniline]",100 to 1000
5,"CNS(=O)(=O)c1ccc(NC2CCCCC2)c(-c2nnn(C3CCN(S(C)(=O)=O)CC3)n2)c1 [Compound 32, 4-(cyclohexylamino)-N-methyl-3-(2-(1-(methylsulfonyl)piperidin-4-yl)-2H-tetrazol-5-yl)benzenesulfonamide]",> 3000
6,"CNS(=O)(=O)c1ccc(NC2CCCC(F)(F)C2)c(-c2nnn(C)n2)c1 (stereo not drawn) [Compound 73, 4-((3,3-difluorocyclohexyl)amino)-N-methyl-3-(2-methyl-2H-tetrazol-5-yl)benzenesulfonamide]",≤ 100
7,"CNS(=O)(=O)c1ccc(NC2CCCCC2)c(-c2nnn(C3CCCN(C(C)=O)C3)n2)c1 (stereo not drawn) [Compound 53, 3-(2-(1-acetylpiperidin-3-yl)-2H-tetrazol-5-yl)-4-(cyclohexylamino)-N-methylbenzenesulfonamide]",100 to 1000
8,"CCn1nnc(-c2cc(S(=O)(=O)NC)ccc2NC2CCCCC2)n1 [Compound 14, 4-(cyclohexylamino)-3-(2-ethyl-2H-tetrazol-5-yl)-N-methylbenzenesulfonamide]",≤ 100
9,"CNS(=O)(=O)c1ccc(NC2CCCCC2)c(-c2nnn(C3CCN(C(C)=O)CC3)n2)c1 [Compound 31, 3-(2-(1-acetylpiperidin-4-yl)-2H-tetrazol-5-yl)-4-(cyclohexylamino)-N-methylbenzenesulfonamide]",100 to 1000
10,"CNS(=O)(=O)c1ccc(NC2CCCCC2)c(-c2nnn(C)n2)c1 [Compound 22, 4-(cyclohexylamino)-N-methyl-3-(2-methyl-2H-tetrazol-5-yl)benzenesulfonamide]",≤ 100
11,"CNS(=O)(=O)c1ccc(NC2CCCCC2)c(-c2nnn(C3CN(C(=O)OC(C)(C)C)C3)n2)c1 [Compound 25, tert-butyl 3-(5-(2-(cyclohexylamino)-5-(N-methylsulfamoyl)phenyl)-2H-tetrazol-2-yl)azetidine-1-carboxylate]",> 3000
12,"CNS(=O)(=O)c1ccc(NC2CCCCC2)c(-c2nnn(C3CCCN(S(C)(=O)=O)C3)n2)c1 (stereo not drawn) [Compound 62, 4-(cyclohexylamino)-N-methyl-3-(2-(1-(methylsulfonyl)piperidin-3-yl)-2H-tetrazol-5-yl)benzenesulfonamide]",> 3000
13,"CC(C)(C)NS(=O)(=O)c1ccc(NC2CCCCC2)c(-c2nnn(CCO)n2)c1 [Compound 2, N-(tert-butyl)-4-(cyclohexylamino)-3-(2-(2-hydroxyethyl)-2H-tetrazol-5-yl)benzenesulfonamide]",> 3000
14,"CNS(=O)(=O)c1ccc(NC2CCCCC2)c(-c2cn(C)nn2)c1 [Compound 58, 4-(cyclohexylamino)-N-methyl-3-(1-methyl-1H-1,2,3-triazol-4-yl)benzenesulfonamide]",≤ 100
15,"CNS(=O)(=O)c1ccc(NC2CCCCC2)c(-c2nc(C)n(C)n2)c1 [Compound 67, 4-(cyclohexylamino)-3-(1,5-dimethyl-1H-1,2,4-triazol-3-yl)-N-methylbenzenesulfonamide]",≤ 100
16,"CNS(=O)(=O)c1ccc(NC2CCCCC2)c(-c2nnn(Cc3ccccc3)n2)c1 [Compound 20, 3-(2-benzyl-2H-tetrazol-5-yl)-4-(cyclohexylamino)-N-methylbenzenesulfonamide]",≤ 100
